Test results from EP4809830A1, “USE OF 2'-FUCOSYLLACTOSE IN PROMOTING INTESTINAL DEVELOPMENT AND PREVENTING INTESTINAL DAMAGE” (Ausnutria Dairy (China) Co., Ltd., priority 2024, dated 2025).

Columns and labels:
Caco-2 cells [1] = experiment: Effects of 2'-FL on glycocalyx development in intestinal epithelial cells (qPCR of glycocalyx development genes); format: cell-based, human
Procedure: (§1) Caco-2 cell culture: human colon adenocarcinoma cells Caco-2 were cultured in MEM complete medium containing 20% high-quality fetal bovine serum, grown in 25 cm^2 cell culture flasks and incubated in a carbon dioxide incubator at 37 °C, 5% CO2, and 95% relative humidity. The culture medium was changed every one or two days. When the cells reach 80%-90% confluence, the cells were digested with 0.25% trypsin digestion solution and subcultured at a ratio of 1:3.
1.1 Experiments: Caco-2 cells were adjusted to a density of 1 × 10^5 cells/cm^2 and inoculated in 24-well plates. According to groups, 2'-FL at concentrations of 0.6 mg/mL, 1.2 mg/mL, and 2.4 mg/mL was added to MEM complete medium, respectively. After incubation for 3 days, MEM medium was served as a blank control. Total RNA was extracted from the cells and reverse transcribed. Transcriptional levels of genes related to glycocalyx development, including glypican 1 (gpc1), hyaluronic acid synthases (has1, has2 and has3), and exostosin glycosyltransferases (ext1 and ext2) in the Caco-2 cells were measured by qPCR. qPCR primer sequences were shown in Table 1.
(§2) qPCR kit manufacturer: Nanjing Vazyme Biotechnology Co., Ltd.; Catalog number: AceQ Universal U+ Probe Master Mix V2; amplification program: step 1: 37 °C for 2 min, and cycle number 1; step 2: 95 °C for 5 min, and cycle number 1; and step 3: 95 °C for 10 s, 60°C for 30 s, and cycle number 45.

Caco-2 cells [2] = experiment: Preventive effects of 2'-FL on glycocalyx damage caused by LPS (qPCR of glycocalyx development genes); format: cell-based, human; settings: for transcriptional level of gpc1: then 100 ng/mL LPS 24 h; for transcriptional level of ext2 / transcriptional level of has2 / transcriptional level of has3 / transcription level of has1 / transcriptional level of ext1: then LPS
Procedure: as §1, §2
2.1 Experiments: Caco-2 cells were adjusted to a density of 1 × 10^5 cells/cm^2 and inoculated in 24-well plates. According to groups, 2'-FL at concentrations of 0.6 mg/mL, 1.2 mg/mL, and 2.4 mg/mL was added to MEM complete medium, respectively. After incubation for 3 days, culture supernatant was removed, and fresh MEM complete medium with a final concentration of 100 ng/mL LPS was added and they are co-incubated for 24 h. Cells with added LPS but without 2'-FL were designated as a model group, and cells without added LPS or 2'-FL were designated as a blank group. Total RNA was extracted from the cells and reverse transcribed. Transcriptional levels of genes related to glycocalyx development, including glypican 1 (gpc1), hyaluronic acid synthases (has1, has2 and has3), and exostosin glycosyltransferases (ext1 and ext2), in the Caco-2 cells were measured by qPCR.

[3] = all three concentrations of 2'-FL (0.6, 1.2, 2.4 mg/mL), 3 days, vs blank control, p < 0.05
[4] = of 0.6, 1.2, 2.4 mg/mL tested, effect decreases with increasing concentration
[5] = summary statement, 0.6mg/mL-1.2 mg/mL
[6] = 2.4 mg/mL 2'-FL, compared to the model group, p < 0.05
[7] = different concentrations of 2'-FL 3 days, compared with the blank group
[8] = prevention group with different concentrations of 2'-FL, vs the blank group, p > 0.05
[9] = summary statement, 0.6mg/mL-2.4 mg/mL

C[C@@H]1O[C@@H](O[C@H]2[C@H](O[C@H]3[C@H](O)[C@@H](O)C(O)O[C@@H]3CO)O[C@H](CO)[C@H](O)[C@@H]2O)[C@@H](O)[C@H](O)[C@@H]1O (stereo partly shown) [2'-FL, 2'-fucosyllactose]
transcriptional level of ext1 mRNA (Caco-2 cells [1]; [3]): significantly upregulate
transcriptional level of ext2 mRNA (Caco-2 cells [1]; [3]): significantly upregulate
transcriptional level of gpc1 mRNA (Caco-2 cells [1]; [3]): significantly upregulate
transcriptional level of has1 mRNA (Caco-2 cells [1]; [3]): significantly upregulate
transcriptional level of has2 mRNA (Caco-2 cells [1]; [3]): significantly upregulate
transcriptional level of has3 mRNA (Caco-2 cells [1]; [3]): significantly upregulate
concentration at which the upregulation effect on the transcriptional level of ext1 reaches a maximum (Caco-2 cells [1]; [4]): 0.6 mg/mL
concentration at which the upregulation effect on the transcriptional level of ext2 reaches a maximum (Caco-2 cells [1]; [4]): 0.6 mg/mL
concentration at which the upregulation effect on the transcriptional level of has1 reaches a maximum (Caco-2 cells [1]; [4]): 0.6 mg/mL
concentration at which the upregulation effect on the transcriptional level of has2 reaches a maximum (Caco-2 cells [1]; [4]): 0.6 mg/mL
concentration at which the upregulation effect on the transcriptional level of has3 reaches a maximum (Caco-2 cells [1]; [4]): 0.6 mg/mL
concentration at which the upregulation effect on the transcriptional level of gpc1 reaches a maximum (Caco-2 cells [1]; of 0.6, 1.2, 2.4 mg/mL tested, first increasing and then decreasing): 1.2 mg/mL
transcriptional level of ext1 (Caco-2 cells [1]; summary statement, 0.6 mg/mL): significantly upregulate
transcriptional level of ext2 (Caco-2 cells [1]; summary statement, 0.6 mg/mL): significantly upregulate
transcriptional level of has1 (Caco-2 cells [1]; summary statement, 0.6 mg/mL): significantly upregulate
transcriptional level of has2 (Caco-2 cells [1]; summary statement, 0.6 mg/mL): significantly upregulate
transcriptional level of has3 (Caco-2 cells [1]; summary statement, 0.6 mg/mL): significantly upregulate
transcriptional level of gpc1 (Caco-2 cells [1]; [5]): significantly upregulate
transcriptional level of gpc1 (Caco-2 cells [2]; 0.6 mg/mL 2'-FL 3 days, compared with the blank group): significantly upregulate
transcriptional level of gpc1 (Caco-2 cells [2]; 1.2 mg/mL 2'-FL 3 days, compared with the blank group): significantly upregulate
transcriptional level of ext2 (Caco-2 cells [2]; 1.2 mg/mL 2'-FL, p<0.05): significantly upregulate
transcriptional level of has2 (Caco-2 cells [2]; [6]): significantly upregulated
transcriptional level of has3 (Caco-2 cells [2]; [6]): significantly upregulated
transcription level of has1 (Caco-2 cells [2]; 2.4 mg/mL 2'-FL, compared with the model group): significantly upregulated
transcriptional level of ext2 (Caco-2 cells [2]; 2.4 mg/mL 2'-FL, p<0.05): significantly upregulate
transcriptional level of ext1 (Caco-2 cells [2]; [7]): still upregulated
transcriptional level of ext2 (Caco-2 cells [2]; [7]): still upregulated
transcriptional level of gpc1 (Caco-2 cells [2]; different concentrations of 2'-FL (0.6, 1.2, 2.4 mg/mL) 3 days, compared with the blank group): still upregulated
transcriptional level of has2 (Caco-2 cells [2]; [8]): no significant differences
transcriptional level of has3 (Caco-2 cells [2]; [8]): no significant differences
transcription level of has1 (Caco-2 cells [2]; prevention groups with different concentrations of 2'-FL (0.6, 1.2, 2.4 mg/mL), compared with the blank group, p < 0.05): significantly downregulated
downregulation of the transcriptional level of gpc1 caused by LPS (Caco-2 cells [2]; [5]): significantly prevent downregulation
downregulation of the transcriptional level of ext1 caused by LPS (Caco-2 cells [2]; [9]): significantly prevent downregulation
downregulation of the transcriptional level of ext2 caused by LPS (Caco-2 cells [2]; [9]): significantly prevent downregulation
downregulation of the transcriptional level of has2 caused by LPS (Caco-2 cells [2]; [9]): significantly prevent downregulation
downregulation of the transcriptional level of has3 caused by LPS (Caco-2 cells [2]; [9]): significantly prevent downregulation
transcriptional level of ext1 (Caco-2 cells [2]; three concentrations of 2'-FL (0.6, 1.2, 2.4 mg/mL), p<0.05): significantly upregulate
